Literature values in patent publication US8592434B2, “Mucoadhesive buccal tablets for the treatment of orofacial herpes” (BioAlliance Pharma SA, priority 2009, dated 2013).

Conditions: oral treatment, irrespective of the dosage and duration

SMILES: CC(C)[C@H](N)C(=O)OCCOCn1cnc2c(=O)[nH]c(N)nc21 [valacyclovir, L-valine ester of acyclovir]
- Headaches, treated patients: about 10%

SMILES: CC(=O)OCC(CCn1cnc2cnc(N)nc21)COC(C)=O [famciclovir, diacetyl ester of 6-deoxy pencyclovir]
- Headaches, treated patients: about 10%
